Our source for the IC50 values is US7691860B2, “Sulfonamide derivatives” (Banyu Pharmaceutical Co., Ltd., priority 2004, dated 2010).

By IC50 is commonly meant the concentration that gives 50% inhibition.

In the experiment the target is T1, human NPY Y5 receptor (Homo sapiens, UniProt Q15761).
T1 construct: expressed in transfected cells; host or cells: COS-7, CHO and LM(tk-)
T1 sequence (Q15761 1-445): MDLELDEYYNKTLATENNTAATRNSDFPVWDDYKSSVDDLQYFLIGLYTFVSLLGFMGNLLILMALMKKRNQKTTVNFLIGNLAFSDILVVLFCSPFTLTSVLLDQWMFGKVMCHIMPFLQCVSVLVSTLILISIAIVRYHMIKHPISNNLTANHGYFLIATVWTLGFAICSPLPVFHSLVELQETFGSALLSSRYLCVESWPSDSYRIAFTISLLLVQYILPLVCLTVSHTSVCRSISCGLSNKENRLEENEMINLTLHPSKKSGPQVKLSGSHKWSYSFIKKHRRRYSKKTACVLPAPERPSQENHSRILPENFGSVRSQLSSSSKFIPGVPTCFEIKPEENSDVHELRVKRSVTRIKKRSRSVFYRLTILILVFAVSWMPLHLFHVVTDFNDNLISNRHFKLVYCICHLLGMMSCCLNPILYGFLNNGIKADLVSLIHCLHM
As to the kind of experiment: NPY binding inhibition test ([125I]peptide YY binding to membranes of NPY Y5 receptor expressing cells). The settings on record: membrane sample of NPY Y5 receptor expressed cells, 25° C., 2 hours, read-out: IC50 against specific peptide YY binding. The source says: The cDNA sequence (refer to the specification of WO 96/16542) encoding human NPY Y5 receptor was cloned into the expression vectors, pcDNA3, pRc/RSV (supplied by Invitrogen Co.) and pCI-neo (supplied by Promega Co.). The resultant expression vectors were transfected into the host cells, COS-7, CHO and LM(tk−) (American Type Culture Collection) using the cationic lipid method (refer to Proceedings of the National Academy of Sciences of the United States of America, vol. 84, pp. 7413 (1987)) to give NPY Y5 receptor expression cells. A membrane sample prepared from the NPY Y5 receptor expressed cells was incubated together with a test compound and 20,000 cpm of [^125I]peptide YY (supplied by NEN Co.) in an assay buffer (25 mM Tris buffer, pH 7.4, containing 10 mM of magnesium chloride, 1 mM of phenylmethylsulfonyl fluoride, 0.1% bacitracin and 0.5% bovine serum albumin) at 25° C. for 2 hours, followed by filtration through glassfilter GF/C. After washing with 5 mM Tris buffer (pH7.4) containing 0.3% BSA, radioactivity of the cake on the filter was measured. Non-specific binding was measured in the presence of 1 μM of peptide YY, and a 50% Inhibition Concentration (IC50 value) of the test compound against specific peptide YY binding was determined (refer to Endocrinology, vol. 131, pp. 2090 (1992)).
Turning to `CC(C)(C)S(=O)(=O)N[C@H]1CC[C@H](c2nc3ccc(-c4ccccc4)cc3[nH]2)CC1` [Example 3, 2-(trans-4-tert-butylsulfonylamino-cyclohexyl)-5-phenylbenzimidazole], the IC50 was 0.67 nM.
The same measure for `CC(C)(C)S(=O)(=O)N[C@H]1CC[C@H](c2nc3nc(-c4ccccc4F)ccc3[nH]2)CC1` [Example 4, 2-(trans-4-tert-butylsulfonylamino-cyclohexyl)-5-(2-fluorophenyl)imidazo[4,5-b]pyridine]: 1.4 nM; for `CC(C)(C)S(=O)(=O)N[C@H]1CC[C@H](c2nc3nc(-c4ccc(F)cc4)ncc3[nH]2)CC1` [Example 7, 8-(trans-4-tert-butylsulfonylamino-cyclohexyl)-2-(4-fluorophenyl)purine]: 1.2 nM.
Then `CC(C)(C)S(=O)(=O)N[C@H]1CC[C@H](c2nc3nc(-c4ccccc4)ncc3[nH]2)CC1` [Example 9, 8-(trans-4-tert-butylsulfonylamino-cyclohexyl)-2-phenylpurine], with 1.6 nM; and `CC(C)(C)S(=O)(=O)NC1CCN(c2nc3ccc(-c4ccccc4)cc3[nH]2)CC1` [Example 17, 2-(4-tert-butylsulfonylaminopiperidin-1-yl)-5-phenylbenzimidazole], with 1.5 nM.
The same measure for `CS(=O)(=O)Nc1ccccc1N1CCN(c2nc3nc(-c4ccccc4)ncc3[nH]2)CC1` [Example 22, 8-{1-(2-methylsulfonylaminophenyl)piperazin-4-yl}-2-phenylpurine]: 1.7 nM.
